The values that follow come from patent publication US20220213060A1, “Crystal Form of Quinazolinone Compound and Preparation Method Therefor” (Luoxin Healthcare Science and Technology Development …, priority 2019, published 2022).

A short description of series [1]: Beagle dog absorption test (pharmacokinetics). The note with it: male and female Beagle dogs, oral, 0.3 mg/kg, single. The series is classed as in vivo, Beagle dogs. How it is done:
Beagle dogs were given the crystal form A of the compound represented by formula (I) by single or multiple oral administration and single intravenous injection respectively, with 6 dogs in each group, half male and half female. The single oral doses were 0.3, land 3 mg/kg respectively; the multiple doses were 1 mg/kg, once a day for 7 consecutive days; the single intravenous dose was 0.3 mg/kg. According to the drug plasma concentration-time curve, the pharmacokinetic parameters were calculated, the results are shown in Table 15. The vehicle for drug preparation in group 1 was 5% HP-beta-CD, 5% solutol, pH=8 aqueous solution, the vehicles for groups 2, 3, 4 were 0.5% MC, 0.2% Tween80 aqueous solution.

The nature of series [2]: Hygroscopicity by dynamic vapor sorption (DVS). It is filed as physicochemical. As to conditions: 25° C. and 80% RH. The procedure:
1.4 Dynamic Vapor Sorption (DVS) Method of the Present Disclosure
Instrument model: SMS DVS Advantage dynamic vapor sorption instrument
Detection conditions: 10-20 mg of sample was placed in a DVS sample tray for testing.
Detailed DVS parameters were as follows:
Equilibrium: dm/dt=0.01%/min: (shortest: 10 min, longest: 180 min)
Drying: drying at 0% RH for 120 min
RH (%) test gradient: 10%
RH (%) test gradient range: 0%-90%-0%
Hygroscopicity evaluation is classified as follows:
20 mg of the crystal form A of the compound represented by formula (I) was placed in the DVS sample tray for testing.

Series [3] deals with HR+/HER2+ human breast cancer BT-474 (PIK3CA amplified). Nature of the series: In vivo pharmacodynamic study, BT-474 nude mouse subcutaneous xenograft tumor model. Further details: species or system BALB/c nude mice. How it is done: The phenotype of human BT-474 breast cancer cells is HR+/HER2+, and it has PIK3CA amplification. This experiment evaluated the efficacy of the crystal form A of the compound represented by formula (I) in a human breast cancer xenograft tumor model, using BYL-719 as a reference.
Cell culture: Human breast cancer BT474 cells were cultured in vitro in a single layer, the culture condition was Hybri-Care medium with 10% fetal bovine serum and the cells were incubated in 5% CO2 at 37° C. Digestion and passage treatment with trypsin-EDTA was carried out twice a week. When the cell saturation was 80%-90% and the number reached the requirement, the cells were collected, counted and inoculated.
Animals: BALB/c nude mice, female, 6-8 weeks old, weighing 18-20 g. A total of 85 animals were required, and provided by Shanghai Bikai experimental animal Co., Ltd.
Tumor inoculation: Estrogen tablets (0.36 mg/tablet) were subcutaneously inoculated on the left back of each mouse, three days later, 0.2 mL (10×10^6 cells) of BT474 cells (with matrigel in a volume ratio of 1:1) were subcutaneously inoculated on the right back of each mouse, group administration was started when the average tumor volume reached 150 mm^3−200 mm^3.
Tumor-bearing mice in each administration group had good tolerance to the tested compounds.

A further series concerns the target T1, PI3Kα (Homo sapiens, UniProt P42336).
T1 construct: purchased Millipore 14-602-K
In words: In vitro enzymatic activity test (ADP-Glo lipid kinase), PI3Kα wild type. The series is classed as biochemical. As to conditions: Table 17, in vitro screening; read-out: PI3Kα IC50. How it is done: (§1) The lipid kinase reaction was carried out in a suitable substrate and under ATP conditions, then the activity of the kinase was detected by ADP-Glo™ kit in two steps. Step 1: the kinase reaction was terminated, in which the residual ATP was completely removed and only ADP was retained; step 2: kinase detection reagent was added to convert ADP to ATP, accompanied by fluorescein/luciferase reaction. Finally, the fluorescence value output was converted into kinase activity.
(§2) Experimental Materials and Equipment:
(§3) 2) Kit: ADP-Glo™ lipid kinase and PIP2:3PS kit (Promega #V1792)
(§4) The reagent kit contains: 1 mM PIP2:3PS, 10× lipid dilution buffer, 1 M magnesium chloride, 10 mM ATP, 10 mM ADP, ADP-Glo reagent, detection buffer and detection substrate.
(§5) 3) Reaction plate: OptiPlate-384, white and transparent (PerkinElmer #6007299)
(§6) 1) 10× reaction buffer: 500 mM HEPES, pH 7.5, 500 mM NaCl, […]; BSA: 10% stock solution, self-made
(§7) 2) Final test system conditions: 1× reaction system: 50 mM of HEPES, 50 mM of NaCl, 3 mM of MgCl2, 0.01% BSA (freshly prepared on the day of experiment), 1% DMSO (v/v)+/−compound
(§8) 3) Reaction system: 3 μL of mixture of enzyme and substrate (1:1)+2 μL of ATP/MgCl2 mixture+5 μL of ADP-Glo reagent+10 μL of detection reagent.
(§9) The specific experimental operations were as follows: […]
(§10) (16) Fluorescence values were measured on the Envision instrument.
Background: In ADP-Glo the light output rises with the ADP produced.

In another series the target is T2, PI3Kβ (Homo sapiens, UniProt P42338).
T2 construct: purchased Promega V1751
T2 sequence (P42338 whole entry): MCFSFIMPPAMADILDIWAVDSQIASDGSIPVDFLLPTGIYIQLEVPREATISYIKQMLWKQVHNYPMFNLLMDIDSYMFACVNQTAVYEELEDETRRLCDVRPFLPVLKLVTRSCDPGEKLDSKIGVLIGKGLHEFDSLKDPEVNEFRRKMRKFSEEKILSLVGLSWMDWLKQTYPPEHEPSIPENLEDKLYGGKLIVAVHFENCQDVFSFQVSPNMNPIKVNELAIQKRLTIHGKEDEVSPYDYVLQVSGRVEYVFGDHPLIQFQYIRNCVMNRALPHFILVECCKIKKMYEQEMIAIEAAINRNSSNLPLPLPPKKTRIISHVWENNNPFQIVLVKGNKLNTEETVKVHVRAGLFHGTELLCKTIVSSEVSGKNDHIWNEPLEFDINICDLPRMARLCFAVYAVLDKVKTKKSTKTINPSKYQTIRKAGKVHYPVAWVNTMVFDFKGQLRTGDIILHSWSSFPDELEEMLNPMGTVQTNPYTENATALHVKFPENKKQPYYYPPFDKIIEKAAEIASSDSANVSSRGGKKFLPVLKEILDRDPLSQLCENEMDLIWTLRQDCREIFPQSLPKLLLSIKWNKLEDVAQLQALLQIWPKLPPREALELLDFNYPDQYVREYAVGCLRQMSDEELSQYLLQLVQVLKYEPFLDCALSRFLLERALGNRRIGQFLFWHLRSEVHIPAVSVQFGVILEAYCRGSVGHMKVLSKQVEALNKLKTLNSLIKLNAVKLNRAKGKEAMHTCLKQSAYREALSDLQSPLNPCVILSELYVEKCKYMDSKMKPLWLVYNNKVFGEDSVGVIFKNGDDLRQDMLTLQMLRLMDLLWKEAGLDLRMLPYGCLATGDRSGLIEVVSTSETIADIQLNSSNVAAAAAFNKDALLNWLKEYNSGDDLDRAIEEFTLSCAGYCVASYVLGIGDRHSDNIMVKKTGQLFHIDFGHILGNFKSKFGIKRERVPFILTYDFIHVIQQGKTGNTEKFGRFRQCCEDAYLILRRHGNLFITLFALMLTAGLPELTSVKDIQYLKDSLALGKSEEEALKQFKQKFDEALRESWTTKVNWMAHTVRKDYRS
T2 sequence (P27986 whole entry partner): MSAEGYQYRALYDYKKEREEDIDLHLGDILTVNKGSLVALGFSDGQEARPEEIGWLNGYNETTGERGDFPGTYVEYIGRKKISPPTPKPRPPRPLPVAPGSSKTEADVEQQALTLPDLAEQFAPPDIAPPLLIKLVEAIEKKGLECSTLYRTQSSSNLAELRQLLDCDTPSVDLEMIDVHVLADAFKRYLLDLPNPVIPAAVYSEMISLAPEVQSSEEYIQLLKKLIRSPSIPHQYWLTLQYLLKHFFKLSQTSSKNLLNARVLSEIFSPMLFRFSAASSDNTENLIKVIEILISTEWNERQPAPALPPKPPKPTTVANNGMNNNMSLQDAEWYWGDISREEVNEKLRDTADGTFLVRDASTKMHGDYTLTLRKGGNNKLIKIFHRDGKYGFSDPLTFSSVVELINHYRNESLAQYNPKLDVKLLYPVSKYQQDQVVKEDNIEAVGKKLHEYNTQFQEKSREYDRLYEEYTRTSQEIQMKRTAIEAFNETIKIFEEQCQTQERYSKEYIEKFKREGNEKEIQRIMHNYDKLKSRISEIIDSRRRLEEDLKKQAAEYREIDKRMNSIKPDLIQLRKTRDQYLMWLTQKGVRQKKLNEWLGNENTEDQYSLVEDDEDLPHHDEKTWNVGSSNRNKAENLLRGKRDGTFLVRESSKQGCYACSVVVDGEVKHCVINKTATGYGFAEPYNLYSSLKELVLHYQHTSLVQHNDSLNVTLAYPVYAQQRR
Nature of the series: In vitro enzymatic activity test (ADP-Glo lipid kinase), PI3Kβ. It is filed as biochemical. As to conditions: Table 17, in vitro screening. The procedure: as §1, §2, §3, §4, §5, §6, §7, §8, §9, §10

The target in another series is T3, PI3Kδ (Homo sapiens, UniProt O00329).
T3 construct: purchased Millipore 14-604-K
T3 sequence (O00329 whole entry): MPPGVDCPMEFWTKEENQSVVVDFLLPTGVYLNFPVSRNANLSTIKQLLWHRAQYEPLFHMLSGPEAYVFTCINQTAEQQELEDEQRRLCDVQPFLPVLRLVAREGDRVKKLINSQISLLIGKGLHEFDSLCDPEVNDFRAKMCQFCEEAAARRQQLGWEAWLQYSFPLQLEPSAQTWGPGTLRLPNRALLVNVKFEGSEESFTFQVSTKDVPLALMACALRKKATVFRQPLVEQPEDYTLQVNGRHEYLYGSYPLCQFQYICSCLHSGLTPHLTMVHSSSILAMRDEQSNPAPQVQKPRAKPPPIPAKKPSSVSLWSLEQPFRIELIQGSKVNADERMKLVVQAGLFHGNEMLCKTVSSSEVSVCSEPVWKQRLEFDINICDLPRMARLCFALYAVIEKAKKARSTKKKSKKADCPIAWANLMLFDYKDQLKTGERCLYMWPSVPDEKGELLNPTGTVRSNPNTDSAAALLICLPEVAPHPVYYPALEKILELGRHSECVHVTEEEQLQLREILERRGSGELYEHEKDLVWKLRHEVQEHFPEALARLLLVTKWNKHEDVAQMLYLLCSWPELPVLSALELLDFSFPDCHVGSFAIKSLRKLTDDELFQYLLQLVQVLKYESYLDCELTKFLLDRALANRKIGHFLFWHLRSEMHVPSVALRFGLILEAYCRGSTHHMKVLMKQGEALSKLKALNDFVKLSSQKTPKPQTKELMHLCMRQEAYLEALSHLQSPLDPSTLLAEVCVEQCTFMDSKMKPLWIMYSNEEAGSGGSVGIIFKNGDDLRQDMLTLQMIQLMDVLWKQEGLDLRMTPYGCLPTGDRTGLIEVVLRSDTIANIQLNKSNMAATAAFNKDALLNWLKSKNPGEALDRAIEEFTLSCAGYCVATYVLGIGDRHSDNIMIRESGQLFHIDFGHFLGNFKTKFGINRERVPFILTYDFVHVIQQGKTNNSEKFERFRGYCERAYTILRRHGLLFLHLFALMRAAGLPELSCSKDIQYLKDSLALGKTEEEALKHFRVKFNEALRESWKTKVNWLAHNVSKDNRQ
T3 sequence (P27986 whole entry partner): as the sequence (P27986 whole entry partner) above
In words: In vitro enzymatic activity test (ADP-Glo lipid kinase), PI3Kδ. The series is classed as biochemical. As to conditions: Table 17, in vitro screening. The procedure: as §1, §2, §3, §4, §5, §6, §7, §8, §9, §10

The target of a further series is T4, PI3Kγ (Homo sapiens, UniProt P48736).
T4 construct: purchased Millipore 14-558-K
T4 sequence (P48736 whole entry): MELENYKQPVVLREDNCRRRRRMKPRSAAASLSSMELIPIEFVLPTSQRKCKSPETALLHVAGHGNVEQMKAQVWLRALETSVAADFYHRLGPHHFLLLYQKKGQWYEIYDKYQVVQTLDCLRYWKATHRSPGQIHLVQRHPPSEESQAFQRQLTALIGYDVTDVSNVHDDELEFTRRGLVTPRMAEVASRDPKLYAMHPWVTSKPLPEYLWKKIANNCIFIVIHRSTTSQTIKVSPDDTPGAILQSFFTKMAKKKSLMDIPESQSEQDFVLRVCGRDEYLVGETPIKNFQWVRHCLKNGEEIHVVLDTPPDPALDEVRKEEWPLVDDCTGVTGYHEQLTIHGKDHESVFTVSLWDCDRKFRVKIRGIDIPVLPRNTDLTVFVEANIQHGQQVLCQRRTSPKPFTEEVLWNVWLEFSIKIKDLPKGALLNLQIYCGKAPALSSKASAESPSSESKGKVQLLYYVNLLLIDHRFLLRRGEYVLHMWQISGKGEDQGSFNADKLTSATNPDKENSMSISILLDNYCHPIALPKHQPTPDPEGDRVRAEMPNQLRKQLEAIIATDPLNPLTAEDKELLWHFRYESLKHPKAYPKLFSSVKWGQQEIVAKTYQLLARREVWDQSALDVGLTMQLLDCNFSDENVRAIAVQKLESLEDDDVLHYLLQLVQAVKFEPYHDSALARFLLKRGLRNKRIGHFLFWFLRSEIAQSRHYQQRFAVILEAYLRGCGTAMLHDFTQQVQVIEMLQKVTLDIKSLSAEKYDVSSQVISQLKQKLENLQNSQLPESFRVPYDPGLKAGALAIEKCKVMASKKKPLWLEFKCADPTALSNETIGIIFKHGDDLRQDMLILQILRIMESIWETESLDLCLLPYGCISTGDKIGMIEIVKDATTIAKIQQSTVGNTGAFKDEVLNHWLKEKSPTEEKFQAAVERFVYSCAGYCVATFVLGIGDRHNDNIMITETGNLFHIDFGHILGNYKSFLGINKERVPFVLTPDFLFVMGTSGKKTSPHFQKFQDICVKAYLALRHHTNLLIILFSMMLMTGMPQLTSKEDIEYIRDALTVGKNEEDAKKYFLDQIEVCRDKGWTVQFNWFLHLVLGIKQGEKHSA
In words: In vitro enzymatic activity test (ADP-Glo lipid kinase), PI3Kγ. The note with it: Table 17, in vitro screening. The series is classed as biochemical. How it is done:
as §1, §2, §3, §4, §5, §6, §7, §8, §9, §10

The subject of another series is MCF7 cell line. In words: In vitro cell activity test: ELISA of Akt phosphorylation in MCF7 cells. The series is classed as cell-based. The note with it: Homo sapiens; inhibition of Akt phosphorylation, insulin-stimulated MCF7 cells. The text has this:
ELISA method was used to measure the inhibition level of the compounds to be tested on the phosphorylation of Akt, which is the downstream protein of PI3K in signal pathway in MCF7 cell line to reflect the cell activity of the compounds.
Cell culture medium: complete cell culture medium (RPMI 1640+10% serum+1% L-glutamine+1% double antibody)
Serum-free medium (without serum, RPMI 1640+1% L-glutamine+1% double antibody)
Specific operation steps were as follows:
(1) MCF7 cells (ATCC® HTB-22™) were inoculated into a 96-well plate with 100 μL (2.5 10^4 cells per well) of complete cell culture medium, and incubated at 37° C. and 5% CO2 for 24 hours.
(2) The complete cell culture medium was replaced with 100 μL serum-free medium, and incubated overnight in starvation
(3) The compound (the initial concentration of the compound was 1 mM, which was subjected to a three-fold dilution in 10 concentrations. Then, each concentration of the compound was diluted 100-fold with serum-free medium), and 25 μL of the diluted compound was added to the well plate containing cells.
(4) The cells were incubated at 37° C. and 5% CO2 for 2 h
(5) 10 μg/mL insulin (Sigma #I9278-5 mL) was used to stimulate the cells in the well plate, incubated for 30 min, and then centrifuged at 1000 rpm for 5 min at room temperature.
(6) 250 μL 1× balanced salt solution (Invitrogen, #14065-056, 4° C., containing 1 mM/L Na3VO4) was added to each well to wash the cells once
(7) 100 μL of lysis buffer (tris(hydroxymethyl)aminomethane hydrochloride, Invitrogen, #15567-1000 ml) was added to each well and shaken at 4° C. for 60 min, and then centrifuged at 4000 rpm for 10 min at 4° C.
(8) The subsequent steps were performed according to the ELISA kit (TGR BioSciences #EKT002) instructions.

The mark [4] stands for this setting: 40 mg/kg, oral once a day for 20 days.

A value given as a limit tells only on which side of the number the result lay.

T1 sequence (P42336 whole entry): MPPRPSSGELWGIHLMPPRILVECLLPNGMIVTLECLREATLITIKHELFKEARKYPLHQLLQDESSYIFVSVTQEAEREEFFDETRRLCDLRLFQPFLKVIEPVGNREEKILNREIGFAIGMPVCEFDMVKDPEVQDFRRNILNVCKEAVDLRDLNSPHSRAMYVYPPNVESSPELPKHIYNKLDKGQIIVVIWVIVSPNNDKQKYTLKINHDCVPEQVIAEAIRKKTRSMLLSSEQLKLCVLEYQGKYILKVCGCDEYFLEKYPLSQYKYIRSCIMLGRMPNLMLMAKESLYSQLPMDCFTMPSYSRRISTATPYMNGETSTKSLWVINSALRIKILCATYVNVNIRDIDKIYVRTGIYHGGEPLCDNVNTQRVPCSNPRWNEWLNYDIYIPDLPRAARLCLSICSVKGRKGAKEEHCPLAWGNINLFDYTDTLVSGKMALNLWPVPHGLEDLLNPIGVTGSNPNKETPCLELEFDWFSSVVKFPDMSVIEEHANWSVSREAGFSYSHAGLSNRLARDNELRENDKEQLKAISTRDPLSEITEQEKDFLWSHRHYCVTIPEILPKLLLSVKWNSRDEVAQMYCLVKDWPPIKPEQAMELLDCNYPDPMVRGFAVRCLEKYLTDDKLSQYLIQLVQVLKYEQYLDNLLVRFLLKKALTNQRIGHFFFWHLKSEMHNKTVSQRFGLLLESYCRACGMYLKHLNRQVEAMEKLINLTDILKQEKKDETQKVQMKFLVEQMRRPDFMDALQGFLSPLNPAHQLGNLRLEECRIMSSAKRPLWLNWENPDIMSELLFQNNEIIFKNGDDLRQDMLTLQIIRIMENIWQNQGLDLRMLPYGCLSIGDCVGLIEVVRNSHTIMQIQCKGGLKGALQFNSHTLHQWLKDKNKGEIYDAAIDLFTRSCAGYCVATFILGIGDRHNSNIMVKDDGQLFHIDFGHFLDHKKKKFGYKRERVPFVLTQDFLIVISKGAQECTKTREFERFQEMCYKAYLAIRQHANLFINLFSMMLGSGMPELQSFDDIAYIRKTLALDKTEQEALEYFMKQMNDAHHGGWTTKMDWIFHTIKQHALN
T1 sequence (P27986 whole entry partner): as the sequence (P27986 whole entry partner) above

`CNC(=O)[C@H](C)Cn1cnc2ccc(-c3cnc(OC)c(NS(=O)(=O)c4ccc(F)cc4F)c3)cc2c1=O` [listing 1 of 2 here]: the “Oral bioavailability (%)” value in series [1] was 71.2%.

For the molecule `CNC(=O)[C@H](C)Cn1cnc2ccc(-c3cnc(OC)c(NS(=O)(=O)c4ccc(F)cc4F)c3)cc2c1=O` [listing 2 of 2 here], in series [2], the Classification for hygroscopicity result was “hygroscopic” and the “ΔW, hygroscopical weight gain” value came out at 2.332%.

As to `Cc1nc(NC(=O)N2CCC[C@H]2C(N)=O)sc1-c1ccnc(C(C)(C)C(F)(F)F)c1` [BYL-719, reference compound], the “Anti-tumor effect (in words)” value in series [3] (40 mg/kg group) is “significant anti-tumor effects”. Also, in series [3] (setting [4]), the T/C % is 29.39% and the TGI % was 95.31%.

`CNC(=O)[C@H](C)Cn1cnc2ccc(-c3cnc(OC)c(NS(=O)(=O)c4ccc(F)cc4F)c3)cc2c1=O` [Compound represented by formula (I)]: the IC50 was found to be 1.75 nM at PI3Kα; 192 nM at PI3Kβ; 25.3 nM on PI3Kδ; 19.8 nM on PI3Kγ; 35.3 nM in the series with MCF7 cell line.

For `COc1ncc(-c2ccc3ncn(CCN(C)C)c(=O)c3c2)cc1NS(=O)(=O)c1ccc(F)cc1` [R011 (A2)], in the series with MCF7 cell line, inhibition was half-maximal at 230 nM (IC50).

With `CCN(CC)CCn1cnc2ccc(-c3cnc(OC)c(NS(=O)(=O)c4ccc(F)cc4F)c3)cc2c1=O` [R012 (A10)], the 50% inhibitory concentration (IC50) in the series with MCF7 cell line was over 1000 nM.

A word on the IC50: it is the midpoint of a concentration-inhibition curve.
